Among the data in patent US20250368666A1, “INDAZOLE COMPOUNDS” (TYRA BIOSCIENCES, INC., priority 2022, published 2025) are Kd values, retold here.

Broadly, the Kd is the free concentration of one partner at which half of the binding sites on the other are occupied at equilibrium, for simple one-to-one binding.

Like-named read-outs stand apart in the source and are kept apart here. Some results are limits rather than exact numbers.

What all share (test): Kinase binding assay (kinase-tagged T7 phage, affinity beads, qPCR), Kd
For one assay, the target named is T1, FGFR3 (Homo sapiens, UniProt P22607).
T1 construct: made in house; host or cells: E. coli (BL21-derived), T7 phage
Conditions: read-out: FGFR3 (Kd nM). Here is the method: (§1) Kinase-tagged T7 phage strains were prepared in an E. coli host derived from the BL21 strain. E. coli were grown to log-phase and infected with T7 phage and incubated with shaking at 32° C. until lysis. The lysates were centrifuged and filtered to remove cell debris. Streptavidin-coated magnetic beads were treated with biotinylated small molecule ligands for 30 minutes at room temperature to generate affinity resins for kinase assays. The liganded beads were blocked with excess biotin and washed with blocking buffer SeaBlock (Pierce), 1% BSA, 0.05% Tween 20, 1 mM DTT to remove unbound ligand and to reduce non-specific binding.
(§2) Test compounds were prepared as 111× stocks in 100% DMSO. Kds were determined using an 11-point 3-fold compound dilution series with three DMSO control points. […] The compounds were then diluted directly into the assays such that the final concentration of DMSO was 0.9%. All reactions performed in polypropylene 384-well plate. Each was a final volume of 0.02 ml. […] The kinase concentration in the eluates was measured by qPCR.
(§3) Binding constants were calculated with a standard dose-response curve using the Hill equation: […]
(§4) The Hill Slope was set to −1. Curves were fitted using a non-linear least square fit with the Levenberg-Marquardt algorithm.

In the next assay the target is T2, FGFR1 (Homo sapiens, UniProt P11362).
T2 construct: made in house; host or cells: E. coli (BL21-derived), T7 phage
Conditions: read-out: FGFR1 (Kd nM). Here is the method:
as §1, §2, §3, §4

Another assay deals with T3, FGFR4 (Homo sapiens, UniProt P22455).
T3 construct: made in house; host or cells: E. coli (BL21-derived), T7 phage
Conditions: read-out: FGFR4 (Kd nM). Here is the method: as §1, §2, §3, §4

For the next assay, the target named is T4, FGFR3 (V555M) (Homo sapiens, UniProt P22607, V555M).
T4 construct: made in house; host or cells: E. coli (BL21-derived), T7 phage
The conditions noted are these: V555M mutant; read-out: FGFR3 (V555M) (Kd nM). How it is done: as §1, §2, §3, §4

Another assay has as its target T5, FGFR2 (Homo sapiens, UniProt P21802).
T5 construct: made in house; host or cells: E. coli (BL21-derived), T7 phage
Conditions: read-out: FGFR2 (Kd nM). Here is the method:
as §1, §2, §3, §4

Where [1] appears, read: kinase binding assay, 11-point 3-fold dilution series.

T5 sequence (P21802 22-821): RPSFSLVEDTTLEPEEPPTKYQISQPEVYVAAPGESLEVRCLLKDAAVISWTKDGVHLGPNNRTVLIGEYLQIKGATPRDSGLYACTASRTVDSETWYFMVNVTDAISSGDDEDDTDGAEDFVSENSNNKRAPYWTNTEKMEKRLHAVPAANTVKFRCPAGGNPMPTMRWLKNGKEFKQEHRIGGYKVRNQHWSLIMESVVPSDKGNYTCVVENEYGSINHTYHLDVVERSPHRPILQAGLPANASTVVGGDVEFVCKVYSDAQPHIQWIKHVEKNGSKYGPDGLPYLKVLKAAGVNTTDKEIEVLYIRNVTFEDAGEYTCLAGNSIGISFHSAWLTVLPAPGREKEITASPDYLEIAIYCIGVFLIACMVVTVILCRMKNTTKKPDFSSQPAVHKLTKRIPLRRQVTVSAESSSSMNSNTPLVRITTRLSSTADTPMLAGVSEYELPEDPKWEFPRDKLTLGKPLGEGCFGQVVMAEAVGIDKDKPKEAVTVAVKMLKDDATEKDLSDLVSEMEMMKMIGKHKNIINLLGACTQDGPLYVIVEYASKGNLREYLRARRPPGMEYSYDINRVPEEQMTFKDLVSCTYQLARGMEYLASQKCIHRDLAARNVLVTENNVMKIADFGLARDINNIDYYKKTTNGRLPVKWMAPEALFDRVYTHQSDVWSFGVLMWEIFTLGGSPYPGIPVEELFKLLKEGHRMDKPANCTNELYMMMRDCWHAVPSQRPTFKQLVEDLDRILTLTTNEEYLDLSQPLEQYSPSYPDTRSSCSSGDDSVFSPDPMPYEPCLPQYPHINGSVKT
T3 sequence (P22455 22-802): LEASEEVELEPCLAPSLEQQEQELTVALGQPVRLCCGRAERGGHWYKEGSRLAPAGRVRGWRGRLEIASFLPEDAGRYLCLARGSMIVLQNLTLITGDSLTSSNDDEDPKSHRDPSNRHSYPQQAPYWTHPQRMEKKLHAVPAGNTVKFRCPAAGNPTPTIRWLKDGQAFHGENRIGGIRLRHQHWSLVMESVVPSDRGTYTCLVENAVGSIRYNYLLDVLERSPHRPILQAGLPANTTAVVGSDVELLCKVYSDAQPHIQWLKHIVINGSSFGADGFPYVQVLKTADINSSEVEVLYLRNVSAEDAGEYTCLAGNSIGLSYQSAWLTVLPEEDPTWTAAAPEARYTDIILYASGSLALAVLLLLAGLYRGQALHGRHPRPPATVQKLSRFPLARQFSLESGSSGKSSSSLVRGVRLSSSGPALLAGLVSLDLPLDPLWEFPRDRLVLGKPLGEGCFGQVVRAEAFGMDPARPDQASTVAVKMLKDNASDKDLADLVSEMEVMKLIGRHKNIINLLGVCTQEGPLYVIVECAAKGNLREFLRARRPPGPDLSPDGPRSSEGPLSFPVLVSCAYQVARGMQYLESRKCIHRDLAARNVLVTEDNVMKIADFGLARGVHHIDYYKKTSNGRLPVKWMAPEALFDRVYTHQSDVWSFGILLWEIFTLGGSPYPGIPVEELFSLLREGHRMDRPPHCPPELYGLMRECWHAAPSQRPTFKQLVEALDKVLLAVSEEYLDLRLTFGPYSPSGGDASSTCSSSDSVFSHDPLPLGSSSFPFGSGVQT
T4 sequence (P22607 23-806 V555M): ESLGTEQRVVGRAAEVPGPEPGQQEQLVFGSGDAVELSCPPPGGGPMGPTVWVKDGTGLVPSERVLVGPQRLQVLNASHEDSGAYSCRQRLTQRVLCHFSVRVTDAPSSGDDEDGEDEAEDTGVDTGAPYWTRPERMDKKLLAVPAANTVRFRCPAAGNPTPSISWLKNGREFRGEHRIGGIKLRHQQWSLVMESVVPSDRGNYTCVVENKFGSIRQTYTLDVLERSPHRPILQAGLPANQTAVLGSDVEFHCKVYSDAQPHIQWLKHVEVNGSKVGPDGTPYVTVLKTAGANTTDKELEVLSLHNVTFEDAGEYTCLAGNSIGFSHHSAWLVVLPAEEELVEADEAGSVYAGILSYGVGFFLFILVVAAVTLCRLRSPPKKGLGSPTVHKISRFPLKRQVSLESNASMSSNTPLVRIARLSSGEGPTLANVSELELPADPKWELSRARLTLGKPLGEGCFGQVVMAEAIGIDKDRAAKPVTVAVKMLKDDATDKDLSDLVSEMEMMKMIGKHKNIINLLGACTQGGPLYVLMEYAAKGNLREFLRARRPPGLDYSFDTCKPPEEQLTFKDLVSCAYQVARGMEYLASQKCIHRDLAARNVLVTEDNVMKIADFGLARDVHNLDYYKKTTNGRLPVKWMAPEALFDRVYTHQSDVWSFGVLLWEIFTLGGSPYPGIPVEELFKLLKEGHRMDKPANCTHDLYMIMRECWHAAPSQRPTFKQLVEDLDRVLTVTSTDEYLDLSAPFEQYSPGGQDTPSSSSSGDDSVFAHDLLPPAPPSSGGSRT
T2 sequence (P11362 22-822): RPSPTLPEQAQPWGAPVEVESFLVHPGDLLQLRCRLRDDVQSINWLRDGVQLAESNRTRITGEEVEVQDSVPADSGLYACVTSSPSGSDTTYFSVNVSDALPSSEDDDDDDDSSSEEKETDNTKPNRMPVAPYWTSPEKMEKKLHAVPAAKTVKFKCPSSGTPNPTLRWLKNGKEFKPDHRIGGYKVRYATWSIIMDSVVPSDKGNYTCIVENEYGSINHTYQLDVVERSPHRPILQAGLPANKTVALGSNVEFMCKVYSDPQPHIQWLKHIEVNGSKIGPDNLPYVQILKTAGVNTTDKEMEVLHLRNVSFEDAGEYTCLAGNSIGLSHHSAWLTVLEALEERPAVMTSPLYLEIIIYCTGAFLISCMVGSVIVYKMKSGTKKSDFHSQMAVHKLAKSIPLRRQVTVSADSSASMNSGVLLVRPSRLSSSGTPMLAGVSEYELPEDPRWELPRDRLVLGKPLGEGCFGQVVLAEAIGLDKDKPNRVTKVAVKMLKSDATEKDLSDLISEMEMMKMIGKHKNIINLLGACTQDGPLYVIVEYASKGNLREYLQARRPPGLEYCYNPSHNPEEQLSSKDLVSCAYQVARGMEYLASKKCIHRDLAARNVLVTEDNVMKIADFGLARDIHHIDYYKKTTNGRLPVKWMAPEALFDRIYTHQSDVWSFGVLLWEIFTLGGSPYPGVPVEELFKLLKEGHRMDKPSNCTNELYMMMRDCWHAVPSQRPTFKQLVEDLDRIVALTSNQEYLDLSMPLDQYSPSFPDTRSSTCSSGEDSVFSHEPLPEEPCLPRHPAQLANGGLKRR
T1 sequence (P22607 23-806): as the sequence (P22607 23-806 V555M) above, with M533V counted along it

For the compound `C[C@H](Oc1ccc2[nH]nc(-c3cnc(N4C[C@@H](CS(C)(=O)=O)[C@@H]4C)c(F)c3)c2c1)c1c(Cl)cncc1Cl` [Example 202, 5-((S)-1-(3,5-dichloropyridin-4-yl)ethoxy)-3-(5-fluoro-6-((2S,3R)-2-methyl-3-((meth-ylsulfonyl)meth-yl)azetidin-1-yl)pyridin-3-yl)-1H-indazole], the Kd was 50 to 300 nM at FGFR3; 300 to 1000 nM at FGFR1; 50 to 300 nM on FGFR4; 1 to 50 nM at FGFR3 (V555M); over 1000 nM on FGFR2.
Regarding `COc1cc2[nH]nc(-c3cnc(N4CC(C)(NCCO)C4)c(F)c3)c2cc1O[C@H](C)c1c(Cl)cncc1Cl` [Example 164, (R)-2-((1-(5-(5-(1-(3,5-dichloro-pyridin-4-yl)ethoxy)-6-methoxy-1H-indazol-3-yl)-3-fluoropyridin-2-yl)-3-methylazetidin-3-yl)amino)ethan-1-ol], the Kd on FGFR3, on FGFR1, at FGFR4, at FGFR3 (V555M) and on FGFR2 was 1 to 50 nM each time.
As for `COc1cc2[nH]nc(-c3cnc(N4CC(C)(CP(C)(C)=O)C4)c(F)c3)c2cc1O[C@H](C)c1c(Cl)cncc1Cl` [Example 179, (R)-((1-(5-(5-(1-(3,5-dichloro-pyridin-4-yl)ethoxy)-6-methoxy-1H-indazol-3-yl)-3-fluoropyridin-2-yl)-3-methylazetidin-3-yl)methyl)dimethyl-phosphine oxide], the Kd at FGFR3, at FGFR1, at FGFR4, at FGFR3 (V555M) and at FGFR2 was 1 to 50 nM throughout.
In the case of `C[C@@H](Oc1ccc2[nH]nc(-c3cnc(N4CC(C)(CN5CCCC5)C4)c(F)c3)c2c1F)c1c(Cl)cncc1Cl` [Example 185, (R)-5-(1-(3,5-dichloropyridin-4-yl)ethoxy)-4-fluoro-3-(5-fluoro-6-(3-methyl-3-(pyrrolidin-1-ylmethyl)azetidin-1-yl)pyridin-3-yl)-1H-indazole], the dissociation constant (Kd) on FGFR3 was in the range of 50 to 300 nM; on FGFR1, 300 to 1000 nM; on FGFR4 it was 50 to 300 nM; on FGFR3 (V555M), 50 to 300 nM; on FGFR2 it was 300 to 1000 nM.
As for `C[C@@H](Oc1ccc2[nH]nc(-c3ccc(N4CC(C)(NCCO)C4)nc3)c2c1F)c1c(Cl)cncc1Cl` [Example 192, (R)-2-((1-(5-(5-(1-(3,5-dichloro-pyridin-4-yl)ethoxy)-4-fluoro-1H-inda-zol-3-yl)pyridin-2-yl)-3-methylazetidin-3-yl)amino)ethanol], the Kd at FGFR3 fell in the range of 50 to 300 nM; on FGFR1, 300 to 1000 nM; on FGFR4, 300 to 1000 nM; on FGFR3 (V555M), 1 to 50 nM; on FGFR2, 300 to 1000 nM.
As to `C[C@@H](Oc1ccc2[nH]nc(-c3ccc(N4CC(N)(CC5CCCO5)C4)nn3)c2c1)c1c(Cl)cncc1Cl` (stereo partly drawn) [Example 305, 1-(6-(5-((R)-1-(3,5-dichloropyridin-4-yl)ethoxy)-1H-indazol-3-yl)pyridazin-3-yl)-3-((tetrahydrofuran-2-yl)methyl)azetidin-3-amine], the Kd at FGFR3 and at FGFR1 was 1 to 50 nM throughout.
As for `COc1cc2[nH]nc(-c3ccc(N4CC[C@](C)(N)C4)nc3)c2cc1O[C@H](C)c1c(Cl)cncc1Cl` [Example 381, (S)-1-(5-(5-((R)-1-(3,5-dichloropyridin-4-yl)ethoxy)-6-methoxy-1H-indazol-3-yl)pyridin-2-yl)-3-methyl-pyrrolidin-3-amine], the Kd at FGFR3 and on FGFR1 was 1 to 50 nM each time.
In the case of `CCNC1(C)CN(c2ncc(-c3n[nH]c4ccc(O[C@H](C)c5c(Cl)cncc5Cl)cc34)cn2)C1` [Example 238, (R)-1-(5-(5-(1-(3,5-dichloropyridin-4-yl)ethoxy)-1H-indazol-3-yl)pyrimidin-2-yl)-N-ethyl-3-methylazetidin-3-amine], the Kd at FGFR3 and on FGFR1 was 1 to 50 nM throughout.
For the compound `C[C@@H](Oc1ccc2[nH]nc(-c3ccc(N4CC(N)(CCF)C4)nn3)c2c1)c1c(Cl)cncc1Cl` [Example 292, (R)-1-(6-(5-(1-(3,5-dichloropyridin-4-yl)ethoxy)-1H-indazol-3-yl)pyridazin-3-yl)-3-(2-fluoroethyl)azetidin-3-amine], the equilibrium dissociation constant (Kd) at FGFR3 and at FGFR1 was 1 to 50 nM throughout.
Consider `C[C@@H](Oc1ccc2[nH]nc(-c3ccc(N4CC[C@@](N)(Cc5ccnn5C)C4)nn3)c2c1)c1c(Cl)cncc1Cl` [Example 425, (R)-1-(6-(5-((R)-1-(3,5-dichloropyridin-4-yl)ethoxy)-1H-indazol-3-yl)pyridazin-3-yl)-3-((1-methyl-1H-pyrazol-5-yl)methyl)pyrrolidin-3-amine], for which the Kd at FGFR3 (setting [1]) and at FGFR1 (setting [1]) was 1 to 50 nM in each case.
For `C[C@@H](Oc1ccc2[nH]nc(-c3ccc(N4CC[C@](N)(Cc5ccnn5C)C4)nn3)c2c1)c1c(Cl)cncc1Cl` [Example 424, (S)-1-(6-(5-((R)-1-(3,5-dichloropyridin-4-yl)ethoxy)-1H-indazol-3-yl)pyridazin-3-yl)-3-((1-methyl-1H-pyrazol-5-yl)methyl)pyrrolidin-3-amine], the Kd at FGFR3 (setting [1]) and on FGFR1 (setting [1]) was 1 to 50 nM in each case.
For the compound `C[C@@H](Oc1ccc2[nH]nc(-c3ccc(N4CC(N)(CC(C)(C)O)C4)nn3)c2c1)c1c(Cl)cncc1Cl` [Example 275, (R)-1-(3-amino-1-(6-(5-(1-(3,5-dichloropyridin-4-yl)ethoxy)-1H-indazol-3-yl)pyridazin-3-yl)azetidin-3-yl)-2-methylpropan-2-ol], the Kd at FGFR3 and at FGFR1 was 1 to 50 nM each time.
In the case of `C[C@@H](Oc1ccc2[nH]nc(-c3cnc(N4CC(C)(NCCN5CCCC5)C4)c(F)c3)c2c1)c1c(Cl)cncc1Cl` [Example 268, (R)-1-(5-(5-(1-(3,5-dichloropyridin-4-yl)ethoxy)-1H-indazol-3-yl)-3-fluoropyridin-2-yl)-3-methyl-N-(2-(pyrrolidin-1-yl)ethyl)azetidin-3-amine], the Kd at FGFR3 and at FGFR1 was 1 to 50 nM in each case.
Consider `CC(C)OC(=O)C1(N)CN(c2ncc(-c3n[nH]c4ccc(O[C@H](C)c5c(Cl)cncc5Cl)cc34)cc2F)C1` [Example 287, (R)-isopropyl 3-amino-1-(5-(5-(1-(3,5-dichloropyridin-4-yl)ethoxy)-1H-indazol-3-yl)-3-fluoropyridin-2-yl)azetidine-3-carboxylate], for which the Kd at FGFR3 and at FGFR1 was 1 to 50 nM throughout.
For the compound `COc1cc2[nH]nc(-c3ccc(N4CCC(C)(N)C4)nc3)c2cc1O[C@H](C)c1c(Cl)cncc1Cl` (stereo in doubt) [Example 380, (R)-1-(5-(5-((R)-1-(3,5-dichloropyridin-4-yl)ethoxy)-6-methoxy-1H-indazol-3-yl)pyridin-2-yl)-3-methylpyrrolidin-3-amine], the Kd at FGFR3 and on FGFR1 was 1 to 50 nM in each case.
In the case of `C[C@@H](Oc1ccc2[nH]nc(-c3cnc(N4CC[C@@](C)(N)C4)c(F)c3)c2c1)c1c(Cl)cncc1Cl` [Example 400, (R)-1-(5-(5-((R)-1-(3,5-dichloropyridin-4-yl)ethoxy)-1H-indazol-3-yl)-3-fluoropyridin-2-yl)-3-methylpyrrolidin-3-amine], the Kd at FGFR3 (setting [1]) and at FGFR1 (setting [1]) was 1 to 50 nM each time.
For `CC(C)N(C)C1(CC#N)CN(c2ncc(-c3n[nH]c4ccc(O[C@H](C)c5c(Cl)cncc5Cl)cc34)cc2F)C1` [Example 257, (R)-2-(1-(5-(5-(1-(3,5-dichloropyridin-4-yl)ethoxy)-1H-indazol-3-yl)-3-fluoropyridin-2-yl)-3-(isopropyl(methyl)a-mino)azetidin-3-yl)acetonitrile], the equilibrium dissociation constant (Kd) fell in the range of 1 to 50 nM at FGFR3 and 50 to 300 nM on FGFR1.
On to `C[C@@H](Oc1ccc2[nH]nc(-c3cnc(N4CCC(N)(CCS(C)(=O)=O)CC4)c(F)c3)c2c1)c1c(Cl)cncc1Cl` [Example 395, (R)-1-(5-(5-(1-(3,5-dichloropyridin-4-yl)ethoxy)-1H-indazol-3-yl)-3-fluoropyridin-2-yl)-4-(2-(methylsulfonyl)ethyl) piperidin-4-amine], for which the Kd at FGFR3 (setting [1]) and at FGFR1 (setting [1]) was 1 to 50 nM in each case.
On to `C=CCNC1(C)CN(c2ccc(-c3n[nH]c4ccc(O[C@H](C)c5c(Cl)cncc5Cl)cc34)c(F)n2)C1` [Example 240, (R)-N-ally1-1-(5-(5-(1-(3,5-dichloropyridin-4-yl)ethoxy)-1H-indazol-3-yl)-6-fluoropyridin-2-yl)-3-methylazetidin-3-amine], for which the Kd at FGFR3 and at FGFR1 was 1 to 50 nM throughout.
Regarding `C[C@@H](Oc1ccc2[nH]nc(-c3ccc(N4CC[C@](N)(Cc5ccn(C)n5)C4)nn3)c2c1)c1c(Cl)cncc1Cl` [Example 426, (S)-1-(6-(5-((R)-1-(3,5-dichloropyridin-4-yl)ethoxy)-1H-indazol-3-yl)pyridazin-3-yl)-3-((1-methyl-1H-pyrazol-3-yl)methyl)pyrrolidin-3-amine], the Kd on FGFR3 (setting [1]) and at FGFR1 (setting [1]) was 1 to 50 nM each time.
